Measurements from US9862721B2, “Tetrahydrocarboline derivative” (ONO PHARMACEUTICAL CO., LTD., priority 2011, dated 2018).

Test system: Crl:CD (Sprague-Dawley) male rat
Assay: Measurement of blood pressure and heart rate in rat under wakefulness
Assay type: in vivo
Settings: conscious rat, forced oral administration, 100, 300 mg/kg, up to 180 minutes
Protocol: A Cr1:CD (Sparague-Dawley) male rat (Charles River Laboratories Japan, Inc., 8 weeks old) was anesthetized by inhalation of isoflurane. A catheter (INTRAMEDIC POLYETHYLENE Tubing PE50, CLAY ADAMS) was inserted and indwelled in a femoral artery and another end was exposed from dorsal skin. The rat was placed in a rearing cage for blood pressure measurement. After elapse of 2 hours or more from the insertion of the catheter, each of the compound of Reference Example 2 and the compound of Example 6(72) (dose: 100, 300 mg/kg) was forcedly orally administered, and blood pressure was measured under no anesthesia and no restraint. The blood pressure was measured by connecting the catheter inserted in the femoral artery and a blood pressure transducer (DX-360, Nihon Kohden Corporation) and passing through an amplifier for blood pressure measurement (Coupler.Amplifier PP-101H.AP-101H, Nihon Kohden Corporation). Blood pressure signals were captured into a data acquisition analysis system (HEM 3.5, NOTOCORD SYSTEM S.A.) through a polygraph system (PEG-1000, Nihon Kohden Corporation) to measure blood pressure (systolic pressure, diastolic pressure, mean blood pressure) and heart rate (measured from blood pressure pulse wave). […] The data were accumulated as measured values at respective time points and % variation values in which each value before administration was taken as 100.

Row | Compound | influence on a circulatory organ (blood pressure, heart rate)
1 | O=C(C[C@H]1CC[C@H](C(=O)O)CC1)N1CCc2c(n(Cc3ccc(F)cc3F)c3ncccc23)C1 [Reference Example 2, trans-4-{2-[9-(2,4-difluorobenzyl)-5,6,8,9-tetrahydro-7H-pyrido[4′,3′:4,5]pyrrolo[2,3-b]pyridin-7-yl}-2-oxoethyl}cyclohexanecarboxylic acid, reference compound] | An influence of the compound of Reference Example 2 on a circulatory organ was observed
2 | CCc1cccc(Cn2c3c(c4cccnc42)CCN(C(=O)CC24CCC(C(=O)O)(CC2)C4)C3)c1 [Example 6(72), 4-{2-[9-(3-ethylbenzyl)-5,6,8,9-tetrahydro-7H-pyrido[4′,3′:4,5]pyrrolo[2,3-b]pyridin-7-yl]-2-oxoethyl}bicyclo[2.2.1]heptane-1-carboxylic acid] | no influence

Molecular target: human ENPP2 (Homo sapiens (Human), UniProt Q13822)
Assay: Measurement of human ENPP2 inhibitory activity
Assay type: biochemical
Settings: human ENPP2, 16:0-LPC substrate, read-out: ENPP2 inhibitory activity rate (%)
Protocol: 10 μL of a test compound solution (10% dimethyl sulfoxide) at each concentration and 40 μL of a 5 μg/mL human ENPP2 solution (buffer A: 100 mmol/L Tris-HCl (pH 9.0), 500 mmol/L NaCl, 5 mmol/L MgCl2, 0.05% Triton X-100) were mixed, 50 μL of a 2 mmol/L 16:0-lysophosphatidylcholine (LPC) solution (buffer A) was further added to react at 37° C. for 24 hours. Subsequently, to 10 μL of the reaction solution was added 90 μL of a measurement buffer (0.5 mmol/L aminoantipyrine, 0.3 mmol/L N-ethyl-N-(2-hydroxy-3-sulfopropyl)-3-methylaniline, 1 U/mL peroxidase, 3 U/mL choline oxidase, 100 mmol/L Tris-HCl (pH 8.5), 5 mmol/L CaCl2) to react at 37° C. for 20 minutes, and spectrophotometric determination was performed at 555 nm.
Using a standard curve, a choline production amount (enzyme activity) in each test compound was calculated, and the inhibitory activity rate of each test compound was calculated, wherein the enzyme activity in a positive control to which a test compound is not added, was a 0% inhibition rate, and the enzyme activity in a negative control to which a test compound and human ENPP2 are not added, were 100% inhibition. Further, concerning the present compounds shown in Table 3, an IC50 value was calculated from inhibitory activity rate at each concentration.

Row | Compound | inhibition at 1 µM [%]
3 | C[C@]1(C(=O)O)CC[C@H](CC(=O)N2CCc3c(n(Cc4cnc(C(F)(F)F)s4)c4ncccc34)C2)CC1 [Example 10(5), trans-1-methyl-4-[2-oxo-2-(9-{[2-(trifluoromethyl)-1,3-thiazol-5-yl]methyl}-5,6,8,9-tetrahydro-7H-pyrido[4′,3′:4,5]pyrrolo[2,3-b]pyridin-7-yl)ethyl]cyclohexanecarboxylic acid] | 97.4
4 | O=C(C[C@H]1CC[C@H](C(=O)O)CC1)N1CCc2c(n(Cc3ccc(C(F)(F)F)s3)c3ncccc23)C1 [Example 6(16), trans-4-[2-oxo-2-(9-{[5-(trifluoromethyl)-2-thienyl]methyl}-5,6,8,9-tetrahydro-7H-pyrido[4′,3′:4,5]pyrrolo[2,3-b]pyridin-7-yl)ethyl]cyclohexanecarboxylic acid] | 99
5 | CC1(C)[C@@H](CC(=O)N2CCc3c(n(Cc4cnc(C(F)(F)F)s4)c4ccccc34)C2)CC[C@@]1(C)C(=O)O [Example 6(49), (1R,3R)-1,2,2-trimethyl-3-[2-oxo-2-(9-{[2-(trifluoromethyl)-1,3-thiazol-5-yl]methyl}-1,3,4,9-tetrahydro-2H-beta-carbolin-2-yl)ethyl]cyclopentanecarboxylic acid] | 99.1
6 | CC1(C(=O)O)CCN(CC(=O)N2CCc3c(n(Cc4ccc(C(F)(F)F)s4)c4ncccc34)C2)CC1 [Example 7(39), 4-methyl-1-[2-oxo-2-(9-{[5-(trifluoromethyl)-2-thienyl]methyl}-5,6,8,9-tetrahydro-7H-pyrido[4′,3′:4,5]pyrrolo[2,3-b]pyridin-7-yl)ethyl]-4-piperidinecarboxylic acid] | 99.5
7 | O=C(C[C@H]1CC[C@H](C(=O)O)CC1)N1CCc2c(n(Cc3csc(C(F)(F)F)c3)c3ncccc23)C1 [Example 6(13), trans-4-[2-oxo-2-(9-{[5-(trifluoromethyl)-3-thienyl]methyl}-5,6,8,9-tetrahydro-7H-pyrido[4′,3′:4,5]pyrrolo[2,3-b]pyridin-7-yl)ethyl]cyclohexanecarboxylic acid] | 99.2
8 | O=C(CC12CCC(C(=O)O)(CC1)C2)N1CCc2c(n(Cc3ccc(C(F)(F)F)cc3)c3ncccc23)C1 [Example 6(68), 4-(2-oxo-2-{9-[4-(trifluoromethyl)benzyl]-5,6,8,9-tetrahydro-7H-pyrido[4′,3′:4,5]pyrrolo[2,3-b]pyridin-7-yl}ethyl)bicyclo[2.2.1]heptane-1-carboxylic acid] | 99.2
9 | CCc1cccc(Cn2c3c(c4cccnc42)CCN(C(=O)CC24CCC(C(=O)O)(CC2)C4)C3)c1 [Example 6(72), 4-{2-[9-(3-ethylbenzyl)-5,6,8,9-tetrahydro-7H-pyrido[4′,3′:4,5]pyrrolo[2,3-b]pyridin-7-yl]-2-oxoethyl}bicyclo[2.2.1]heptane-1-carboxylic acid] | 99.3
